{
  "source": "patent US20230357313A1",
  "about": "“SERUM RESISTANT BIS-SULFHYDRYL SPECIFIC BIOTINYLATION REAGENT” (Miltenyi Biotec B.V. & Co. KG, priority 2022, published 2023)",
  "biological_target": "T1, biotinidase (Homo sapiens, UniProt P43251)",
  "T1 construct": "from tissue",
  "T1 sequence (P43251 22-523)": "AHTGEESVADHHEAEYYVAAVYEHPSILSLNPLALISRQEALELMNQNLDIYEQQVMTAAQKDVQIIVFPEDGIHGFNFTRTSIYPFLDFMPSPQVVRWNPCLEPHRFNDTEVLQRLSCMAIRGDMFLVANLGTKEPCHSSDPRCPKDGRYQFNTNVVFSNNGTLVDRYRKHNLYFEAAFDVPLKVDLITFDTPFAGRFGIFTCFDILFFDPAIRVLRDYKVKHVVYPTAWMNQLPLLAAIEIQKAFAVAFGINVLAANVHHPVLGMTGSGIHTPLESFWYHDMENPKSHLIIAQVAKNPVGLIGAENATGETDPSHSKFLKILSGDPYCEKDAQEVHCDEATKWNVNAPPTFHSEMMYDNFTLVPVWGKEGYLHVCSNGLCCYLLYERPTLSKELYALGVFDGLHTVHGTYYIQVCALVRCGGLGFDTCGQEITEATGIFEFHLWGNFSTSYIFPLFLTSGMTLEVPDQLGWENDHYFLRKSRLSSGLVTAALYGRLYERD",
  "assay": "Biotinidase inhibitor experiment: MS9 anti-CD33 Fab in human serum with or without inhibitor, LC-MS",
  "type": "biochemical",
  "settings": "1 mM in human serum, 4 h at 37° C.",
  "procedure": "To verify that biotinidase, an enzyme found in the human body amongst other in human serum, causes the cleavage of the biotinamide bond an experiment was performed with a biotinidase inhibitor ((+) Biotin 4 Amidobenzoic Acid, Cayman, CAS. 102418-74-6). Therefore (+) Biotin 4 Amidobenzoic Acid was added at a concentration of 1 mM into the pre-incubation mix containing the human serum. As control no inhibitor was added. The anti-CD33 Fab with MS9 was pre-incubated for 4 hours at 37° C. Subsequently after the incubation the samples were purified via an IgG-CHI Affinity matrix as previously described.\nFIG. 5A and FIG. 5B show biotinidase as causative agent for instability of linker in non-heat inactivated serum. Biotinylated (MS9) anti-CD33 FAbs were incubated in freshly prepared human serum for 4 h at 37° C. in the presence (left panel) or absence (right panel) of 1 mM Biotin 4-amidobenzoic acid.",
  "data": [
    {"smiles": "O=C(CCCC[C@@H]1SC[C@@H]2NC(=O)N[C@@H]21)Nc1ccc(C(=O)[O-])cc1.[Na+]", "note": "[Biotin 4-amidobenzoic acid, (+) Biotin 4 Amidobenzoic Acid]", "values": [
      {"measurement": "effect of biotinidase inhibitor on biotinamide bond degradation", "result": "protects the biotinamide bond from degradation"}
    ]}
  ]
}
